Measurements taken from patent US12421232B2, “Kinase inhibitor compounds and compositions and methods of use” (ICAHN SCHOOL OF MEDICINE AT MOUNT SINAI, priority 2018, dated 2025).
Where two headings read alike, the source gives them in different places.

Key:
[1] = tested on: NFAT2-GFP nuclear translocation in R7T1 rodent beta cells; test: NFAT2 translocation assay; type: cell-based; settings: 10 μM, 24 hours
From the text: NFAT2T Translocation Assay. […] At least 1000 cells were counted.

VPS34 = target: T1, VPS34 (Homo sapiens, UniProt Q8NEB9); test: KINOMEscan Assay (DiscoverX); type: binding; settings: read-out: % DMSO Ctrl
T1 construct: purchased DiscoverX
T1 sequence (Q8NEB9 whole entry): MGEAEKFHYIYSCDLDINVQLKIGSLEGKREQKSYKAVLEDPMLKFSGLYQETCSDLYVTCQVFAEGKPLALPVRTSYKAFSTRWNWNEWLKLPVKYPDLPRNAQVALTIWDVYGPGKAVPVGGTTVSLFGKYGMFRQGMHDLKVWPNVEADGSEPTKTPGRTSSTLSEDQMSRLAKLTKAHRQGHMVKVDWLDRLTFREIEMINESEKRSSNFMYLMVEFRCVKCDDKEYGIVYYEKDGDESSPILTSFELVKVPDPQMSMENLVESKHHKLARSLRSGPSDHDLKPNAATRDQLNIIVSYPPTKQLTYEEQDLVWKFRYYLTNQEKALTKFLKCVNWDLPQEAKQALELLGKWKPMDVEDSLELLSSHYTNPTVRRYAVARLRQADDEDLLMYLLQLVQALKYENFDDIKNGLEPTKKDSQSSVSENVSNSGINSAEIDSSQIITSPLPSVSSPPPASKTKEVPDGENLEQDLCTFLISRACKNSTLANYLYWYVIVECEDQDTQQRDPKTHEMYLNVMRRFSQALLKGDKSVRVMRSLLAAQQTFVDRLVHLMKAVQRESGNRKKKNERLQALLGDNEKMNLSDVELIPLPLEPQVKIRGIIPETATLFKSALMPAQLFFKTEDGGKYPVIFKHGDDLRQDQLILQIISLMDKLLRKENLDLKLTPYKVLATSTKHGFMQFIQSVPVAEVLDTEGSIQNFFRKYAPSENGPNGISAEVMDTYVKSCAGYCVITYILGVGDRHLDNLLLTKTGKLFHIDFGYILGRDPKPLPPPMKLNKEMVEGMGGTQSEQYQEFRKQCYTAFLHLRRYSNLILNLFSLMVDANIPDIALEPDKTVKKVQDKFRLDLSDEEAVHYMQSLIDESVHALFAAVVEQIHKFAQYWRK

CSNK1D = target: T2, CSNK1D (Homo sapiens, UniProt P48730); test: KINOMEscan Assay (DiscoverX); type: binding; settings: read-out: % DMSO Ctrl
T2 construct: purchased DiscoverX
T2 sequence (P48730 whole entry): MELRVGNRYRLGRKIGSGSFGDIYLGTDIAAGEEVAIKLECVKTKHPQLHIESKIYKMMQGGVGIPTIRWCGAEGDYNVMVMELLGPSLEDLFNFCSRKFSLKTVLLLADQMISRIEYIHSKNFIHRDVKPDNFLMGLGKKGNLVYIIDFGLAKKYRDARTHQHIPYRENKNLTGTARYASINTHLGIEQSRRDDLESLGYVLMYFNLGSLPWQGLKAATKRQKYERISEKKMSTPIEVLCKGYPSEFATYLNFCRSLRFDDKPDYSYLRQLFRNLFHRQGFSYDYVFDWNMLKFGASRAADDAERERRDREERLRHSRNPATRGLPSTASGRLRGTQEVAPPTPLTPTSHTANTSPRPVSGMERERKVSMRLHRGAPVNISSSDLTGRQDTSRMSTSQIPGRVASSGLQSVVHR

DAPK3 = target: T3, DAPK3 (Homo sapiens, UniProt O43293); test: KINOMEscan Assay (DiscoverX); type: binding; settings: read-out: % DMSO Ctrl
T3 construct: purchased DiscoverX
T3 sequence (O43293 whole entry): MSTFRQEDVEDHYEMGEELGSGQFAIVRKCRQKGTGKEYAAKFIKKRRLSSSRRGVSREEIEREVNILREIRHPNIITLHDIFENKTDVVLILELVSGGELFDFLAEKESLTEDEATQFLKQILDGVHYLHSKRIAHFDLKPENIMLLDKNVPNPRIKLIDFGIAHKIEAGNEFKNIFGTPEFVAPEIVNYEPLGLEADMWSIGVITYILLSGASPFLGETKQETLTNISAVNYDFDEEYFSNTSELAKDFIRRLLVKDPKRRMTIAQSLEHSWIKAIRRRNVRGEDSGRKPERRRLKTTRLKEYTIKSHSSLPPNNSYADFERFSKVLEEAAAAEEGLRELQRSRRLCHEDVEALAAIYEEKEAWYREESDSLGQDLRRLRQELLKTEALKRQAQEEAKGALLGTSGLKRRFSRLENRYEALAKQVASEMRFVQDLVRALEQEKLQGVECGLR

HIPK1 = target: T4, HIPK1 (Homo sapiens, UniProt Q86Z02); test: KINOMEscan Assay (DiscoverX); type: binding; settings: read-out: % DMSO Ctrl
T4 construct: purchased DiscoverX

CDK8 = target: T5, CDK8 (Homo sapiens, UniProt P49336); test: KINOMEscan Assay (DiscoverX); type: binding; settings: read-out: % DMSO Ctrl
T5 construct: purchased DiscoverX
T5 sequence (P49336 whole entry): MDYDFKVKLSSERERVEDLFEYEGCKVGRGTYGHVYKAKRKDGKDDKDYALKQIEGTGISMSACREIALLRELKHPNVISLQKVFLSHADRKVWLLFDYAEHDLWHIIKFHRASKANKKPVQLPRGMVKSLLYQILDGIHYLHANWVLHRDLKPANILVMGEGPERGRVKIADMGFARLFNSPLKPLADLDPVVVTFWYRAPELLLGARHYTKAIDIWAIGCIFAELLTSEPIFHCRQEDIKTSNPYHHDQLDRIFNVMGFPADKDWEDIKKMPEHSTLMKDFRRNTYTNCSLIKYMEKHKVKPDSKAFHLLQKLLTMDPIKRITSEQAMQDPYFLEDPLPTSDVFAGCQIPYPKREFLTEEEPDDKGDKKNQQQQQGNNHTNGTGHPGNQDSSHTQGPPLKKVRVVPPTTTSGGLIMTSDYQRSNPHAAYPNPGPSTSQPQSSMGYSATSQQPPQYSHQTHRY

CIT = target: T6, CIT (Homo sapiens, UniProt O14578); test: KINOMEscan Assay (DiscoverX); type: binding; settings: read-out: % DMSO Ctrl
T6 construct: purchased DiscoverX
T6 sequence (O14578 whole entry): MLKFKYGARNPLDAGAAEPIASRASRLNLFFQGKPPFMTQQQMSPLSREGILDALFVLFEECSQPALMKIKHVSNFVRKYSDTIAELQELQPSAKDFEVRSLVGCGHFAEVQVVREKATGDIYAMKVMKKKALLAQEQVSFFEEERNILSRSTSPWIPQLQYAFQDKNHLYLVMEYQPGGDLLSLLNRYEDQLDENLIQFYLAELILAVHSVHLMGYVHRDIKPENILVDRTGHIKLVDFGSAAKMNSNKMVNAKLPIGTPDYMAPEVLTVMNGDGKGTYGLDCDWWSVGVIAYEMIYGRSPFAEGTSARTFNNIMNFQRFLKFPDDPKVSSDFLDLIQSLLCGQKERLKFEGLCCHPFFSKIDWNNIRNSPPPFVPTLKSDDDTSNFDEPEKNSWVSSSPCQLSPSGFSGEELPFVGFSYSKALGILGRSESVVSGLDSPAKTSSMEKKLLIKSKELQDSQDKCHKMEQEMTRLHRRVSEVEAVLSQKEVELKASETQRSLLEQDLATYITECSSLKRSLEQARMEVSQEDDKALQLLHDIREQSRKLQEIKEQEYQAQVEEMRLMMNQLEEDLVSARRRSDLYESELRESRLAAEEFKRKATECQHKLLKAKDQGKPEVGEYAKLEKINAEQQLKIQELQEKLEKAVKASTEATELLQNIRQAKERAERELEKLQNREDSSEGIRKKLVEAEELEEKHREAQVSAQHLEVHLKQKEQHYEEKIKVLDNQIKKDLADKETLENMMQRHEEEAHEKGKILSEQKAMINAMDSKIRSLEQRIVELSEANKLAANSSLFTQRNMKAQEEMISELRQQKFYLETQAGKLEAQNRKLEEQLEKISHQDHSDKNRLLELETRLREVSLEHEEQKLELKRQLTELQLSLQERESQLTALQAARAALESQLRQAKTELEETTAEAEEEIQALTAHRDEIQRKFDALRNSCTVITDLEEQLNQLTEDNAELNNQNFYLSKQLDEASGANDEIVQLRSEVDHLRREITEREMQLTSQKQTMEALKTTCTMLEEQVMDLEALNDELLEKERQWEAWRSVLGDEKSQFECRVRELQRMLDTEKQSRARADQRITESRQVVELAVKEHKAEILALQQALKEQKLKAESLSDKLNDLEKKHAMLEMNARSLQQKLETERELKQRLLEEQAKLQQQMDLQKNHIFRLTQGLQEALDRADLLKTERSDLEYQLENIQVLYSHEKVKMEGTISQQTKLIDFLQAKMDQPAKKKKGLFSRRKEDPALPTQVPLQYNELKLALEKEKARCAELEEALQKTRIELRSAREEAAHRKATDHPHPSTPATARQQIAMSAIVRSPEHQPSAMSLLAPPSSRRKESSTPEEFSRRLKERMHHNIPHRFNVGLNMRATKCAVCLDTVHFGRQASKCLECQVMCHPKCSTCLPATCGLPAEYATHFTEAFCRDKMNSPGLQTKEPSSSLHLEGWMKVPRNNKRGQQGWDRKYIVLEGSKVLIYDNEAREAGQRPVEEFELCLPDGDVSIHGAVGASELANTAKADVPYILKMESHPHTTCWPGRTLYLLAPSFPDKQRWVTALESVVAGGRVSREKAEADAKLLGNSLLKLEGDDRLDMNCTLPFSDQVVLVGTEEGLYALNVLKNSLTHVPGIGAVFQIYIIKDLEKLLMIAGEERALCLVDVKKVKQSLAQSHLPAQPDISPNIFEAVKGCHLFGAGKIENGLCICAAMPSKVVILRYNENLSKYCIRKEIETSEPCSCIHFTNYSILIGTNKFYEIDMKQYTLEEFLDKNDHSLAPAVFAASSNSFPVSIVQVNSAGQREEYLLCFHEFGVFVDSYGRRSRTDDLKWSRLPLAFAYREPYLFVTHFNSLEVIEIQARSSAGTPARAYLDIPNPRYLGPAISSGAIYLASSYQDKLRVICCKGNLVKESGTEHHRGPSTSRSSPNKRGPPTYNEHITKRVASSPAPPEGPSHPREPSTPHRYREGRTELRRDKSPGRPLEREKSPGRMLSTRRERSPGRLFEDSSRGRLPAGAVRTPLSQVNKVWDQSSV

DYRK1A = DYRK1A (Homo sapiens, UniProt Q13627); test: FRET-based LanthaScreen Eu Kinase Binding Assay (Life Technologies)
468 kinases = test: KINOMEscan profile, whole panel; type: binding; settings: 10 μM
[2] = target: T7, Serotonin (5-Hydroxytryptamine) 5-HT2A (Homo sapiens, UniProt P28223); test: Eurofins CEREP Screen; type: binding
T7 construct: purchased Eurofins CEREP

[3] = target: T8, Serotonin (5-Hydroxytryptamine) 5-HT7 (Homo sapiens, UniProt P34969); test: Eurofins CEREP Screen; type: binding
T8 construct: Eurofins CEREP (contract screen)
T8 sequence (P34969 whole entry): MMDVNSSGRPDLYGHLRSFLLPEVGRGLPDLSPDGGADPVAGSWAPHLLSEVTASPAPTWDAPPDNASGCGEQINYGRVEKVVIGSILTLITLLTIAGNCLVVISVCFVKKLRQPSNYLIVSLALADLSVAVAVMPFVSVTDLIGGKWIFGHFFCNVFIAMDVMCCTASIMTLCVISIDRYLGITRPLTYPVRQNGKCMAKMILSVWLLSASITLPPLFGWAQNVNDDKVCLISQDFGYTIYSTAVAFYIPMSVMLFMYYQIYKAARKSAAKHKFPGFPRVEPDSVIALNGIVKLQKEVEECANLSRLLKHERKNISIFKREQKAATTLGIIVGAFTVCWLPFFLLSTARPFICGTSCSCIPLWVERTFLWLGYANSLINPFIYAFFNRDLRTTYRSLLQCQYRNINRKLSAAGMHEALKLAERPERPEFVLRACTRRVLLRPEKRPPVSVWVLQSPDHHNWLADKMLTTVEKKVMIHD

[4] = target: T9, Serotonin (5-Hydroxytryptamine) 5-HT6 (Homo sapiens, UniProt P50406); test: Eurofins CEREP Screen; type: binding
T9 construct: Eurofins CEREP (contract screen)

[5] = target: T10, Serotonin (5-Hydroxytryptamine) 5-HT2C (Homo sapiens, UniProt P28335); test: Eurofins CEREP Screen; type: binding
T10 construct: purchased Eurofins CEREP

Adrenergic α2A = Adrenergic α2A (Homo sapiens, UniProt P08913); test: biochemical
[6] = target: T11, Transporter, Norepinephrine (NET) (Homo sapiens, UniProt P23975); test: Eurofins CEREP Screen; type: binding
T11 construct: Eurofins CEREP (contract screen)

Adrenergic α2C = target: T12, Adrenergic α2C (Homo sapiens, UniProt P18825); test: Eurofins CEREP Screen; type: binding
T12 construct: purchased Eurofins CEREP

Adrenergic α2B = target: T13, Adrenergic α2B (Homo sapiens, UniProt P18089); test: Eurofins CEREP Screen; type: binding
T13 construct: purchased Eurofins CEREP

COc1ccc2c(c1)[nH]c1c(C)nc(CO)cc12 [Compound 2-8, (1-Methyl-7-methoxy-9H-pyrido[3,4-b]indol-3-yl)methanol]
NFAT2 translocation to nucleus [1]: drove NFAT2 translocation to nucleus

COc1ccc2c3ccnc(C)c3n(CCCc3noc(N)n3)c2c1 [Compound 20-13, 3-(3-(7-Methoxy-1-methyl-β-carbolin-9-yl)propyl)-5-amino-1,2,4-oxadiazole]
remaining binding at 10 µM (VPS34): 42% | remaining binding at 10 µM (CSNK1D): 65% | remaining binding at 10 µM (DAPK3): 91% | remaining binding at 10 µM (HIPK1): 9.5% | remaining binding at 10 µM (CDK8): 100% | remaining binding at 10 µM (CIT): 66%

C#CCn1c2cc(OC)ccc2c2ccnc(C)c21 [Compound 20-23a, 3-(7-Methoxy-1-methyl-β-carbolin-9-yl)-propan-1-yne]
remaining binding at 10 µM (VPS34; VPS34, 10 μM): 89% | remaining binding at 10 µM (CSNK1D): 38% | remaining binding at 10 µM (DAPK3): 75% | remaining binding at 10 µM (HIPK1): 12% | remaining binding at 10 µM (CDK8): 26% | remaining binding at 10 µM (CIT): 26% | IC50 (DYRK1A): 8 nM

COc1ccc2c(c1)[nH]c1c(C)nccc12 [Harmine, reference compound]
kinases inhibited (<20% activity remaining) in addition to DYRK1A (468 kinases): 16 | inhibition at 10 µM [2]: 23% | inhibition at 10 µM [3]: 30% | inhibition at 10 µM [4]: 37% | inhibition at 10 µM [5]: 75% | inhibition at 10 µM (Adrenergic α2A): 59% | inhibition at 10 µM [6]: 86% | inhibition at 10 µM (Adrenergic α2C): 45% | inhibition at 10 µM (Adrenergic α2B): 32%
